The source of these data is US20200215158A1, “Multifunctional, Self-Assembled Aptamer-Nanomedicine Compositions and Methods for treating Cancer” (The Methodist Hospital, priority 2018, published 2020).

A short description of data set [1]: Body weight of tumor-bearing mice during treatment. The class given is in vivo, mouse. The method, then:
(§1) The body weight of each mouse was also measured weekly to monitor potential drug toxicity. Mice were euthanized when tumor volume exceeded 2,000 mm^3.

Data set [2] deals with Karpas 299 xenograft tumor. The data set is described as follows: Anticancer efficacy of Apt-NMed in vivo. Also on record: species or system mouse. Conditions: post first dose treatment. The method, then: Mice NOD.Cg-Prkdc^scid Il2rg^tmlWjl/SzJ (NOD SCID), 4-6-weeks old, were used to develop xenograft tumor models by subcutaneously injecting 6×10^6 cultured CD30-expressing lymphoma cells (Karpas 299) (in 100 μL of PBS buffer) into mice on the back. Dorsal tumor nodules were allowed to grow to a volume of ˜4 mm^3 before treatment initiation. Tumor-bearing mice were randomly assigned to three groups (with six mice in each group) as follows: (i) group administered with 0.25 mg Apt-NMed carrying […] to each mouse; (ii) group administered 20 μg free DOX to each mouse, and (iii) untreated group. Drugs were injected through tail veins every other day, and the treatment was continued for four weeks. Tumor length and width were measured with calipers weekly for each mouse. Tumor volume was calculated using the following equation:
Tumor Volume=Length×Width^2×0.52
as §1

Compound `COc1cccc2c1C(=O)c1c(O)c3c(c(O)c1C2=O)C[C@@](O)(C(=O)CO)C[C@@H]3O[C@H]1C[C@H](N)[C@H](O)[C@H](C)O1` [free DOX, doxorubicin] had a body weight loss in data set [1] (day 35, 20 μg/mouse) of 20%. Moreover, in data set [1] (during treatment), the “change in mice body weight” value is “considerable decrease”. Besides, in data set [2], the “day at which the last mouse died” value worked out at 38 days.
